What all share (format): cell-based
In assay [1] the test system is drug susceptible (D6) strain of Plasmodium falciparum. Briefly: In vitro antimalarial MSF (SyBrGreen I fluorescence) assay, D6 strain. As to the method: (§1) Four different laboratory strains of P. falciparum were cultured in human erythrocytes by standard methods under a low oxygen atmosphere (5% O2, 5% CO2, 90% N2) in an environmental chamber. The culture medium was RPMI 1640, supplemented with 25 mM Hepes buffer, 25 mg/liter gentamicin sulfate, 45 mg/liter hypoxanthine, 10 mM glucose, 2 mM glutamine, and 0.5% Albumax II (complete medium). The parasites were maintained in fresh human erythrocytes suspended at a 2% hematocrit in complete medium at 37° C. Stock cultures were sub-passaged every 3 to 4 days by transfer of infected red cells to a flask containing complete medium and uninfected erythrocytes.
(§2) In vitro antimalarial activity of the test compounds was assessed by a fluorescence-based method described previously (Smilkstein et al., 2004, Antimicrobial Agents and Chemotherapy, Vol. 48, pgs. 1803-1806) (reference format?). The studies were set up in triplicate in 96 well plates with two-fold dilutions of each test compound across the plate in a total volume of 100 μl and at a final red blood cell concentration of 2% (v/v). Stock solutions of each drug were prepared by dissolving in DMSO at 10 mM. […] In every case, an additional determination was performed to ensure bracketing of the IC50 value by at least an order of magnitude.
(§3) Automated pipeting and dilution was carried out by a programmable Precision 2000 robotic station (Bio-Tek, Winooski, Vt.). An initial parasitemia of 0.2% was attained by addition of normal uninfected red cells to a stock culture of asynchronous parasite infected red cells (PRBC). The plates were incubated for 72 hrs at 37° C. in an atmosphere of 5% CO2, 5% O2, and 90% N2. After this period, the SyBrGreen I dye-detergent mixture (100 μl) was added and the plates were incubated at room temperature for an hour in the dark and then placed in a 96-well fluorescence plate reader (Gemini-EM, […]) for analysis with excitation and emission wavelength bands centered at 497 and 520 nm, respectively.

The subject of assay [2] is Murine splenic lymphocytes. The experiment in a line: MSLCs-concanavalin A induced proliferation (blastogenesis) cytotoxicity assay, Alamar Blue fluorescence. Conditions: Table 2, 24-hr MSLCs-concanavalin A induced proliferation. As to the method: *Data are the average of at least 3 independent experiments, each performed in triplicate with the aid of a Precision 2000 robotic pipeting station. IC50 values were determined by the MSF assay. […] MSLCs=Murine splenic lymphocytes. Cytotoxicity was determined using a 24-hr MSLCs-concanavalin A induced proliferation assay using the Alamar Blue fluorescence method. IVTI=in vitro therapeutic index calculated from the ratio of IC50 values based on the cytotoxicity observed in the blastogenesis assay and the antimalarial potency against the D6 strain of P. falciparum. NT=not tested.
*Data are the average of at least 3 independent experiments, each performed in triplicate with the aid of a Precision 2000 robotic pipeting station. IC50 values were determined by the MSF assay (Smilkstein et al., AAC, 2004). MSLCs=Murine splenic lymphocytes. Cytotoxicity was determined using a 48-hr MSLCs-concanavalin A induced proliferation assay using the Alamar Blue fluorescence method. IVTI=in vitro therapeutic index calculated from the ratio of IC50 values of the cytotoxicity observed in the blastogenesis assay and antimalarial potency against the D6 strain of P. falciparum. NA=not applicable; ND=not determined.
A general note: The colour change of resazurin is a common sign of viable cells or microbes.

Assay [3] concerns multi-drug resistant (Dd2) strain of Plasmodium falciparum. The experiment in a line: In vitro antimalarial MSF (SyBrGreen I fluorescence) assay, Dd2 strain. Conditions: Table 2, 72 hrs, average of at least 3 experiments. As to the method:
as §1, §2, §3

[4] abbreviates: Table 2, MSF assay, 72 hrs, average of at least 3 experiments, read-out: D6 IC50.
Setting [5] is: Plasmodium falciparum, D6, strain not given, read-out: IC50 value of parent compound used for comparison.
The mark [6] stands for this setting: Plasmodium falciparum, D6, Table 4, MSF assay, read-out: D6 IC50.

Usually IC50 stands for the concentration that inhibits the measured activity by half.

Read-outs that look alike come from different tables or passages of the source. Where only a bound is given, the exact number is not on record here.

Regarding `CCN(CC)CCCC(C)Nc1ccnc2cc(Cl)ccc12` (racemic) [compound 36], the IC50 in assay [1] (setting [4]) was 7.8 nM; in assay [2] it was 3900 nM; in assay [3], 102 nM.

`OC(c1cc(C(F)(F)F)nc2c(C(F)(F)F)cccc12)C1CCCCN1` (racemic) [compound 38]: the IC50 in assay [1] (setting [4]) came out at 5.9 nM; in assay [2] it was 4800 nM; in assay [3], 8.8 nM.

For `O=c1c2ccc(O)cc2[nH]c2cc(Cl)ccc12` [No. 14, 3-hydroxy-6-chloroacridone], in assay [1] (setting [5]), the IC50 was greater than 2200 nM.

Regarding `COc1ccc2c(=O)cc(C)[nH]c2c1` [No. 43, 2-methyl-7-methoxy-4-(1H)-quinolone], the IC50 in assay [1] (setting [5]) is greater than 2500 nM.

Consider `O=C1C=C(O)C(=O)c2ccccc21` [No. 47, 2-hydroxy-1,4-naphthoquinone, reference compound], for which the IC50 in assay [1] (setting [5]) was roughly 1800 nM.

Turning to `O=c1c2ccc(O)cc2oc2cc(O)ccc12` [No. 52, 3,6-dihydroxyxanthone, reference compound], in assay [1] (Plasmodium falciparum, D6, read-out: IC50 value of parent compound used for comparison), the IC50 is greater than 100000 nM.

Regarding `O=c1c2ccccc2[nH]c2ccc(O)cc12` [compound 5], the IC50 was 9000 nM in assay [1] (setting [4]), greater than 25000 nM in assay [2] and 4400 nM in assay [3].

Turning to `O=c1c2ccccc2[nH]c2cc(O)ccc12` [compound 6], the IC50 is 2000 nM in assay [1] (setting [4]), greater than 25000 nM in assay [2] and 504 nM in assay [3].

As for `COc1ccc2[nH]c3cc(Cl)ccc3c(=O)c2c1` [compound 7], the IC50 was 45 nM in assay [1] (setting [4]), greater than 25000 nM in assay [2] and 65 nM in assay [3].

Regarding `O=c1c2ccc(Cl)cc2[nH]c2ccc(O)cc12` [compound 8], the IC50 was 190 nM in assay [1] (setting [4]), 24000 nM in assay [2] and 260 nM in assay [3].

In the case of `COc1ccc2nc3cc(Cl)ccc3c(N)c2c1` [compound 9], the results for the IC50 in assay [1] (setting [4]), in assay [2] and in assay [3] were 18 nM, 450 nM and 42 nM, respectively.

As to `O=c1c2ccc(Cl)cc2[nH]c2ccc(OCCCCCBr)cc12` [compound 10], the IC50 in assay [1] (setting [4]) is 70 nM; in assay [2], 12000 nM; in assay [3], 152 nM.

On to `O=c1c2ccc(O)cc2oc2cc(OCCCCCC(F)(F)F)ccc12` [compound 11], for which the IC50 was 46 nM in assay [1] (setting [4]), greater than 25000 nM in assay [2] and 40 nM in assay [3].

For `O=C1C=C(OCCCCCC(F)(F)F)C(=O)c2ccccc21` [compound 12], the IC50 was 67 nM in assay [1] (setting [4]), 5600 nM in assay [2] and 95 nM in assay [3].

In the case of `COc1ccc2c(=O)c3ccc(Cl)cc3[nH]c2c1` [compound 13], the IC50 in assay [1] (setting [4]) is 76 nM; in assay [2], greater than 25000 nM; in assay [3], 192 nM.

Regarding `O=c1c2ccc(O)cc2[nH]c2cc(Cl)ccc12` [compound 14], the half-inhibitory concentration (IC50) in assay [1] (setting [4]) was determined as 2200 nM; in assay [2] it was 14000 nM; in assay [3] it was 9200 nM.

Consider `O=c1c2ccc(Cl)cc2[nH]c2cc(OCCCCC(F)(C(F)(F)F)C(F)(F)F)ccc12` [compound 24], for which the IC50 in assay [1] (setting [4]) was 0.0015 nM; in assay [2], greater than 25000 nM.

For the molecule `Nc1ccc2c(=O)c3ccc(OCCCCCC(F)(F)F)cc3[nH]c2c1` [compound 34], the IC50 in assay [2] is greater than 25000 nM.

For the molecule `O=C1C=C(O)C(=O)c2ccccc21` [compound 47], the concentration for half-maximal inhibition (IC50) in assay [1] (setting [6]) was determined as 1800 nM.

On to `O=C1C=C(OCCCCC(F)(F)F)C(=O)c2ccccc21` [compound 48], for which the IC50 in assay [1] (setting [6]) came out at 51.1 nM.

Turning to `O=C1C=C(CCCCCC(F)(F)F)C(=O)c2ccccc21` [compound 49], in assay [1] (setting [6]), the IC50 was 823 nM.

Take `O=c1c2ccc(O)cc2oc2cc(O)ccc12` [compound 52]: in assay [1] (Plasmodium falciparum, D6, read-out: D6 IC50, nM), the half-maximal inhibitory concentration (IC50) is greater than 100000 nM.

With `O=c1c2ccc(O)cc2oc2cc(OCCCCCC(F)(F)F)ccc12` [compound 53], the IC50 in assay [1] (setting [6]) worked out at 780 nM.

Turning to `O=C1c2ccccc2Cc2ccc(O)cc21` [compound 54], the IC50 in assay [1] (setting [6]) came to 8300 nM.

As for `O=C1c2ccccc2Cc2ccc(OCCCCCC(F)(F)F)cc21` [compound 55], in assay [1] (setting [6]), the IC50 was 510 nM.

The record behind these values is patent US7829578B1, “Aromatic ketones and uses thereof” (Oregon Health & Science University, priority 2005, dated 2010).
